Data published in patent US20250243180A1, “TARGETED PROTEIN DEGRADATION” (Monte Rosa Therapeutics AG, priority 2023, published 2025).
Counter-ions that a name gives are not always drawn. Like-named read-outs stand apart in the source and are kept apart here.

What was measured:
[1] = target: NEK7 (Homo sapiens (Human), UniProt Q8TDX7+Q96SW2); assay: NEK7 NanoBiT degradation assay in Cal51 NEK7 NanoBiT cell line; type: cell-based; conditions: Cal51 NEK7 NanoBiT cells, 24 hours; for Dmax: CAL-51
Method in brief: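 Cal51 cells with CRISPR knock-in HiBiT-tagged endogenous NEK7 plus stable LgBiT, in live-cell Endurazine medium, seeded 16 h before dosing. Compounds at final 1 μM to 0.05 nM for 24 h at 37 °C, then luminescence read. Response normalized to plate controls and fitted with a 4-parameter logistic giving EC50.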

[2] = target: CRBN-DDB1 (Homo sapiens (Human), UniProt Q96SW2); assay: Compound binding to CRBN by HTRF assay
Chain of CRBN-DDB1 (Q96SW2 whole entry): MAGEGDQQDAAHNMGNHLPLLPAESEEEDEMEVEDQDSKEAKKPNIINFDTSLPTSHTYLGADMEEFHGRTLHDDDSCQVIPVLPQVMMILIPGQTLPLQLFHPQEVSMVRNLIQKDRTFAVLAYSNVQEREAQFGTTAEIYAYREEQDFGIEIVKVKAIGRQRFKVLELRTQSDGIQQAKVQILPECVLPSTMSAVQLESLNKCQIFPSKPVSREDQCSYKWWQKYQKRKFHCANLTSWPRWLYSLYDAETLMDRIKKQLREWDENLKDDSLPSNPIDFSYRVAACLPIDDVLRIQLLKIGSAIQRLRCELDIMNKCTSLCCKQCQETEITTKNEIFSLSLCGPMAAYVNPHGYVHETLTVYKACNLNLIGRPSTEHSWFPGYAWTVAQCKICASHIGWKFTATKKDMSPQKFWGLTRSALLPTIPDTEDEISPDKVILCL
Chain of CRBN-DDB1 (Q16531 whole entry partner): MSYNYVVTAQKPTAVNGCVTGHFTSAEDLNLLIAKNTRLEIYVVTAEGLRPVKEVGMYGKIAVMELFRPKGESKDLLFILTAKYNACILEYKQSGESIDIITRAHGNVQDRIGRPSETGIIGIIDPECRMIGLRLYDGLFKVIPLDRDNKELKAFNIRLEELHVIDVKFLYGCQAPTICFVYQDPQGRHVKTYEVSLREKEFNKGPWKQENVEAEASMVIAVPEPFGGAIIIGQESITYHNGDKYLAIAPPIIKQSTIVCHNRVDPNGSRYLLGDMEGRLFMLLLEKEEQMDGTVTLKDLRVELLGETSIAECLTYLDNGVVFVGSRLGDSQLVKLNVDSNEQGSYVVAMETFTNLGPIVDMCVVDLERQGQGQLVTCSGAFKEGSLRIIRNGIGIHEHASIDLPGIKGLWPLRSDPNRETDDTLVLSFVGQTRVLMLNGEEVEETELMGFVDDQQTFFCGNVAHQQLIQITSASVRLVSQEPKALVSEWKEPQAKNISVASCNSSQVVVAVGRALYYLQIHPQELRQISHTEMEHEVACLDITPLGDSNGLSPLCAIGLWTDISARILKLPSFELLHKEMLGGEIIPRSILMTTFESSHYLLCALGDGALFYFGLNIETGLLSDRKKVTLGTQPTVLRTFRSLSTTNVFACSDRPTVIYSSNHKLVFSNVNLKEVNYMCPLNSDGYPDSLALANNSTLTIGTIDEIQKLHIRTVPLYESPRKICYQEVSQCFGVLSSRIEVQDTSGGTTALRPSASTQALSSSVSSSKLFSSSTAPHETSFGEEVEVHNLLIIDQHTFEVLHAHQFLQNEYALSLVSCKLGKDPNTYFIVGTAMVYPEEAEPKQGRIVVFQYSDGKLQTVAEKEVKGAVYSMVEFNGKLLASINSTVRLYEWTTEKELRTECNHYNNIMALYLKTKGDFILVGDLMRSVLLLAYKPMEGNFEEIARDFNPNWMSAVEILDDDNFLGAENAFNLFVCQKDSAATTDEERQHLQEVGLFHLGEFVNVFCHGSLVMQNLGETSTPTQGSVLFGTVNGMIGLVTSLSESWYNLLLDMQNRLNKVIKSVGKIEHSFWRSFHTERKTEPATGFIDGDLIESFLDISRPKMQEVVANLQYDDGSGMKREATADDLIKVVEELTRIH
Method in brief: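 HTRF displacement of Cy5-thalidomide probe (100 nM) from His-tagged CRBN-DDB1 (2.5 nM) with anti-His terbium cryptate, in HEPES/NaCl/TCEP/EDTA/Tween20 buffer; 11-point 1:3 dilution series, 30 min at ambient temperature. Signal (665/620 nm) normalized to lenalidomide and DMSO controls; EC50 fitted, Ki by Cheng-Prusoff from geometric mean EC50.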

[3] = NEK7 degradation, read-out: NanoBiT Dmax
[4] = NEK7 degradation, read-out: NanoBiT DC50

Chain of NEK7 (Q8TDX7 whole entry): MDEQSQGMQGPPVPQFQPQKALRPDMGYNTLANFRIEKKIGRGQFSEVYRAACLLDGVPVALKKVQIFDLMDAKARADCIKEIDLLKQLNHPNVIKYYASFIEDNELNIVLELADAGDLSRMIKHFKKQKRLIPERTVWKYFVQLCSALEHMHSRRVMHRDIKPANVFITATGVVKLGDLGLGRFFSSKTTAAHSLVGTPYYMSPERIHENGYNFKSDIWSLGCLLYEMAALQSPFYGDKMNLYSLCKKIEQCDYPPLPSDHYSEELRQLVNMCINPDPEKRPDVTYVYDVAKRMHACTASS
Chain of NEK7 (Q96SW2 whole entry): as the sequence (Q96SW2 whole entry) above
Chain of NEK7 (Q16531 2-1140 partner): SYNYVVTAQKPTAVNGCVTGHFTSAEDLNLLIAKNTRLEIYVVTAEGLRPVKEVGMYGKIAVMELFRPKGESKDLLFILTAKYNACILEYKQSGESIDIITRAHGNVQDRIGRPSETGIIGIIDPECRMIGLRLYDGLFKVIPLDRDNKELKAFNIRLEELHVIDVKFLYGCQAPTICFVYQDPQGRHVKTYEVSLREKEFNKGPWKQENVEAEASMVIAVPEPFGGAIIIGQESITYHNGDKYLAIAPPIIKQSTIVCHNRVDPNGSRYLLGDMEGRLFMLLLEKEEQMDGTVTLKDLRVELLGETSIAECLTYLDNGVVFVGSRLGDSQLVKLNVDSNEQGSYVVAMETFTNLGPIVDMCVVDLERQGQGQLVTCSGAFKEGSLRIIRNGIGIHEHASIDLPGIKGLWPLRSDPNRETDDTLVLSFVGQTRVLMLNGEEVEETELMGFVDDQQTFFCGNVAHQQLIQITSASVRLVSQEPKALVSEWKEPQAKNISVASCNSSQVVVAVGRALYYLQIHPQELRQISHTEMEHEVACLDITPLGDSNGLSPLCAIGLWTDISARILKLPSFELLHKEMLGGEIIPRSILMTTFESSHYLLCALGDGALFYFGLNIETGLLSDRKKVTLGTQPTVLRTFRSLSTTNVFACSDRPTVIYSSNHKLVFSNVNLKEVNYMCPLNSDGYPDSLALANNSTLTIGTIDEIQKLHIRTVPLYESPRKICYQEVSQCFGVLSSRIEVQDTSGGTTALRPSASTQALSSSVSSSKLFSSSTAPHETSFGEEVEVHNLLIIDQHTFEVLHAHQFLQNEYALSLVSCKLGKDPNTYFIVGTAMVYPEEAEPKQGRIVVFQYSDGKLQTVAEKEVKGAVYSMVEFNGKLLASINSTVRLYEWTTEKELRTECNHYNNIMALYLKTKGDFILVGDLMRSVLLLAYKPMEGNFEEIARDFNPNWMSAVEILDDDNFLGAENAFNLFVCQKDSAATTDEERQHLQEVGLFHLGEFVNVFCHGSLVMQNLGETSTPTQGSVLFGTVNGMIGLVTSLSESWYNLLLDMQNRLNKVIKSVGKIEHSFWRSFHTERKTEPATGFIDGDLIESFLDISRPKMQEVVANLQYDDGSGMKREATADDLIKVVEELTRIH

Dmax ([1]; read-out: NEK7 NanoBiT Dmax)	Dmax [1, 3]	DC50 ([1]; read-out: NEK7 NanoBiT DC50)	DC50 [1, 4]	EC50 [2]	EC50 ([2]; HTRF class, Cereblon binding)	Compound
92%	> 75%	6 nM	≤ 100 nM	120 nM	100 to 1000 nM	Cc1ccc(C(C)(C)C(=O)NCc2cc(Cl)c(C3CCC(=O)NC3=O)c(Cl)c2)nc1 (stereo not drawn) [Compound 89]
94%	> 75%	4 nM	≤ 100 nM	50 nM	≤ 100 nM	Cn1ccc2cc(C(C)(C)C(=O)NCc3cc(Cl)c(C4CCC(=O)NC4=O)c(Cl)c3)ccc21 (stereo not drawn) [Compound 90]
97%	> 75%	0.4 nM	≤ 100 nM	40 nM	≤ 100 nM	CC(C)(C(=O)NCc1cc(Cl)c(C2CCC(=O)NC2=O)c(Cl)c1)c1ccc2[nH]ccc2c1 (stereo not drawn) [Compound 91]
71%	50 to 75%	65 nM	≤ 100 nM	180 nM	100 to 1000 nM	CC(C)(C(=O)NCc1cc(Cl)c(C2CCC(=O)NC2=O)c(Cl)c1)c1ccnc(C#N)c1 (stereo not drawn) [Compound 92]
95%	> 75%	3 nM	≤ 100 nM	110 nM	100 to 1000 nM	COc1cc(C(C)(C)C(=O)NCc2cc(Cl)c(C3CCC(=O)NC3=O)c(Cl)c2)ccn1 (stereo not drawn) [Compound 98]
87%	> 75%	8 nM	≤ 100 nM	80 nM	≤ 100 nM	CC(C)(C(=O)NCc1cc(Cl)c(C2CCC(=O)NC2=O)c(Cl)c1)c1cccnc1 (stereo not drawn) [Compound 99]
89%	> 75%	20 nM	≤ 100 nM	180 nM	100 to 1000 nM	CC(C)(C(=O)NCc1ccc(C2CCC(=O)NC2=O)c(Cl)c1)c1ccccc1 (stereo not drawn) [Compound 103]
80%	> 75%	26 nM	≤ 100 nM	240 nM	100 to 1000 nM	CC(C)(C(=O)NCc1cc(F)c(C2CCC(=O)NC2=O)c(Cl)c1)c1ccncc1 (stereo not drawn) [Compound 106]
82%	> 75%	28 nM	≤ 100 nM	440 nM	100 to 1000 nM	Cc1cc(CNC(=O)C(C)(C)c2ccncc2)cc(Cl)c1C1CCC(=O)NC1=O (stereo not drawn) [Compound 107, N-(3-chloro-4-(2,6-dioxopiperidin-3-yl)-5-methylbenzyl)-2-methyl-2-(pyridin-4-yl)propanamide]
69%	50 to 75%	250 nM	100 to 1000 nM	480 nM	100 to 1000 nM	CC(C)(C(=O)NCc1ccc(C2CCC(=O)NC2=O)c(Cl)c1)c1ccncc1 (stereo not drawn) [Compound 109]
68%	50 to 75%	61 nM	≤ 100 nM	100 nM	≤ 100 nM	CC(C)(C(=O)NCc1cc(Cl)c(C2CCC(=O)NC2=O)c(Cl)c1)c1ccno1 (stereo not drawn) [Compound 120, N-(3,5-dichloro-4-(2,6-dioxopiperidin-3-yl)benzyl)-2-(isoxazol-5-yl)-2-methylpropanamide]
80%	> 75%	30 nM	≤ 100 nM	290 nM	100 to 1000 nM	CC(C)(C(=O)NCc1cc(Cl)c(C2CCC(=O)NC2=O)c(Cl)c1)c1ccon1 (stereo not drawn) [Compound 121]
73%	50 to 75%	56 nM	≤ 100 nM	230 nM	100 to 1000 nM	CC(C)(C(=O)NCc1cc(Cl)c(C2CCC(=O)NC2=O)c(Cl)c1)c1cnco1 (stereo not drawn) [Compound 122]
70%	50 to 75%	100 nM	100 to 1000 nM	610 nM	100 to 1000 nM	Cn1cncc1C(C)(C)C(=O)NCc1cc(Cl)c(C2CCC(=O)NC2=O)c(Cl)c1 (stereo not drawn) [Compound 123]
73%	50 to 75%	78 nM	≤ 100 nM	140 nM	100 to 1000 nM	CC(C)(C(=O)NCc1cc(Cl)c(C2CCC(=O)NC2=O)c(Cl)c1)c1ncco1 (stereo not drawn) [Compound 124]
71%	50 to 75%	54 nM	≤ 100 nM	70 nM	≤ 100 nM	CC(C)(C(=O)NCc1cc(Cl)c(C2CCC(=O)NC2=O)c(Cl)c1)c1ccns1 (stereo not drawn) [Compound 125]
94%	> 75%	3 nM	≤ 100 nM	50 nM	≤ 100 nM	CC(C)(C(=O)NCc1cc(Cl)c(C2CCC(=O)NC2=O)c(Cl)c1)c1ccsc1 (stereo not drawn) [Compound 126, N-(3,5-dichloro-4-(2,6-dioxopiperidin-3-yl)benzyl)-2-methyl-2-(thiophen-3-yl)propanamide]
90%	> 75%	5 nM	≤ 100 nM	40 nM	≤ 100 nM	O=C1CCC(c2c(Cl)cc(CNC(=O)C3(c4ccccc4)CCOC3)cc2Cl)C(=O)N1 (stereo not drawn) [Compound 127, N-(3,5-dichloro-4-(2,6-dioxopiperidin-3-yl)benzyl)-3-phenyltetrahydrofuran-3-carboxamide]
95%	> 75%	8 nM	≤ 100 nM	40 nM	≤ 100 nM	O=C1CCC(c2c(Cl)cc(CNC(=O)C3(c4ccccc4)CCOCC3)cc2Cl)C(=O)N1 (stereo not drawn) [Compound 128, N-(3,5-dichloro-4-(2,6-dioxopiperidin-3-yl)benzyl)-4-phenyltetrahydro-2H-pyran-4-carboxamide]
90%	> 75%	22 nM	≤ 100 nM	90 nM	≤ 100 nM	O=C1CCC(c2c(Cl)cc(CNC(=O)C3(c4ccccc4)COC3)cc2Cl)C(=O)N1 (stereo not drawn) [Compound 129]
96%	> 75%	2 nM	≤ 100 nM	40 nM	≤ 100 nM	O=C1CCC(c2c(Cl)cc(CNC(=O)C3(c4ccccc4)CCC3)cc2Cl)C(=O)N1 (stereo not drawn) [Compound 130, N-(3,5-dichloro-4-(2,6-dioxopiperidin-3-yl)benzyl)-1-phenylcyclobutane-1-carboxamide]
96%	> 75%	1 nM	≤ 100 nM	20 nM	≤ 100 nM	O=C1CCC(c2c(Cl)cc(CNC(=O)C3(c4ccc5cn[nH]c5c4)CCOCC3)cc2Cl)C(=O)N1 (stereo not drawn) [Compound 131, N-(3,5-dichloro-4-(2,6-dioxopiperidin-3-yl)benzyl)-4-(1H-indazol-6-yl)tetrahydro-2H-pyran-4-carboxamide]
92%	> 75%	5 nM	≤ 100 nM	50 nM	≤ 100 nM	O=C1CCC(c2c(Cl)cc(CNC(=O)C3(c4ccc5[nH]ncc5c4)CCOCC3)cc2Cl)C(=O)N1 (stereo not drawn) [Compound 132, N-(3,5-dichloro-4-(2,6-dioxopiperidin-3-yl)benzyl)-4-(1H-indazol-5-yl)tetrahydro-2H-pyran-4-carboxamide]
94%	> 75%	2 nM	≤ 100 nM	30 nM	≤ 100 nM	Cn1ncc2ccc(C3(C(=O)NCc4cc(Cl)c(C5CCC(=O)NC5=O)c(Cl)c4)CCOCC3)cc21 (stereo not drawn) [Compound 133]
93%	> 75%	2 nM	≤ 100 nM	70 nM	≤ 100 nM	Cn1ncc2ccc(C3(C(=O)NCc4cc(Cl)c(C5CCC(=O)NC5=O)c(Cl)c4)CC(=O)C3)cc21 (stereo not drawn) [Compound 134, N-(3,5-dichloro-4-(2,6-dioxopiperidin-3-yl)benzyl)-1-(1-methyl-1H-indazol-6-yl)-3-oxocyclobutane-1-carboxamide]
65%	50 to 75%	63 nM	≤ 100 nM	60 nM	≤ 100 nM	O=C1CCC(c2c(Cl)cc(CNC(=O)C3(c4ccnc(F)c4)CC(F)(F)C3)cc2Cl)C(=O)N1 (stereo not drawn) [Compound 136, N-(3,5-dichloro-4-(2,6-dioxopiperidin-3-yl)benzyl)-3,3-difluoro-1-(2-fluoropyridin-4-yl)cyclobutane-1-carboxamide]
97%	> 75%	1 nM	≤ 100 nM	50 nM	≤ 100 nM	O=C1CC(C(=O)NCc2cc(Cl)c(C3CCC(=O)NC3=O)c(Cl)c2)(c2ccc(F)cc2)C1 (stereo not drawn) [Compound 137, N-(3,5-dichloro-4-(2,6-dioxopiperidin-3-yl)benzyl)-1-(4-fluorophenyl)-3-oxocyclobutane-1-carboxamide]
88%	> 75%	26 nM	≤ 100 nM	180 nM	100 to 1000 nM	O=C1CCC(c2ccc(CNC(=O)C3(c4ccc(F)cc4)CCOCC3)cc2Cl)C(=O)N1 (stereo not drawn) [Compound 138]

Compound	Dmax ([1]; read-out: NEK7 NanoBiT Dmax)	Dmax [1, 3]	DC50 ([1]; read-out: NEK7 NanoBiT DC50)	DC50 [1, 4]	EC50 [2]	EC50 ([2]; HTRF class, Cereblon binding)
CN1CCC(C(=O)NCc2cc(Cl)c(C3CCC(=O)NC3=O)c(Cl)c2)(c2ccc(F)cc2)CC1 (stereo not drawn) [Compound 135, N-(3,5-dichloro-4-(2,6-dioxopiperidin-3-yl)benzyl)-4-(4-fluorophenyl)-1-methylpiperidine-4-carboxamide formate]	71%	50 to 75%	16 nM	≤ 100 nM	20 nM	≤ 100 nM
